Laboratory results: US12109266B2, “Modulating gabarap to modulate immunogenic cell death” (Dana-Farber Cancer Institute, Inc., priority 2020, dated 2024)
Entries after “also recorded” stand apart in the source; their conditions may differ.

Assays:
[1] = test system: AMO1 and NCI-H929 multiple myeloma cell lines; experiment: Apoptosis assay (Annexin-V/7-AAD flow cytometry); assay type: cell-based, human; settings: BTZ 1-10 nM, 16 h
Description: Apoptosis was evaluated by Annexin-V/7-Aminoactinomycin D (7-AAD) staining and flow cytometric analysis using the PE Annexin V Apoptosis Detection Kit I (BD Biosciences), following the manufacturer's instructions.
Apoptosis was evaluated by Annexin-V/7-Aminoactinomycin D (7-AAD) staining and flow cytometric analysis using the PE Annexin V Apoptosis Detection Kit I (BD Biosciences).

[2] = test system: patient-derived MM cells (pdMM); experiment: Phagocytosis assay of patient-derived MM cells by DCs; assay type: cell-based, human; settings: BTZ 5 and 10 nM; 4 h co-culture
Source text: Multiple myeloma patients BM aspirates and normal donor peripheral blood mononuclear cells (PBMCs) were obtained after written informed consent, in accordance with the declaration of Helsinki and under the approval by the Institutional Review Board of the Dana-Farber Cancer Institute. BMMCs and PBMCs were separated by Ficoll-Paque PLUS (GE Healthcare). Multiple myeloma cells from BMMCs were enriched by CD138-positive selection using magnetic microbeads (Miltenyi Biotec).
Mo-DCs were generated from CD14+ peripheral blood monocytes from healthy donors, positively selected using magnetic beads (Miltenyi Biotec), cultured for 6 days in mo-DC differentiation medium containing GM-CSF and IL-4 (130-094-812; Miltenyi Biotec). AMO1 and NCI-H929 cells lines, as well as patient MM cells, were stained with CellTrace™ Far Red (ThermoFisher Scientific), cultured with or without BTZ for 16 h, and then incubated in 48-well plates for 4 h at 1:1 ratio with CellTrace™ CFSE stained Mo-DCs. Cells were then collected, and phagocytosis analysis was performed by flow cytometry and confocal microscopy. Analagous phagocytosis experiments were performed using 5TGM1 murine multiple myeloma and JAWSII cell line that was used as source of immature murine DCs.
Flow cytometry-based assay: Collected cells were analyzed using the BD LRSFortessa X-20 flow cytometer. […]

5TGM1 cells [3] = experiment: In vivo rechallenge of viable 5TGM1 cells in BTZ-treated mice; design: species or system mouse
Description: (§1) C57BL/KaLwRijHsd mice bearing 5TGM1 WT tumors were treated with BTZ as above. 2 weeks after observation of tumor regression, treated (n=5) as well as naïve mice (n=5), were rechallenged with viable 1×10^6 5TGM1 WT cells, and tumor growth was monitored over time. In a parallel experiment, spleens were harvested 2 weeks after tumor rechallenge from both groups to test T cell specific reactivity against multiple myeloma cell by ELISPOT assay (Translational Immunogenomics Laboratory, DFCI).

[4] = test system: AMO1, H929 and KMS11 MM cells; experiment: Cell surface exposure of CALR (flow cytometry); assay type: cell-based, human
Description: (§2) Multiple myeloma (MM) cells were seeded in 12-well plates (2×10^5 per well), treated with BTZ for 16 h at indicated concentrations, and then stained with Alexa Fluor647® anti-calreticulin antibody (ab196159, Abcam) and 7-AAD. Analysis of fluorescence intensity on 7-AAD negative cells was assessed using BD LRSFortessa™ X-20 flow cytometer.
as §2, with “MM” for “Multiple myeloma (MM)”, “cells” for “cells was assessed”, “LRSFortessa” for “LRSFortessa™”

[5] = test system: type-I IFN response in AMO1 and NCI-H929 MM cells; experiment: Type-I IFN response in MM cells (RNA-seq, qRT-PCR, ELISA); assay type: cell-based, human; settings: BTZ 5 nM
Description: Total RNA from multiple myeloma cells was prepared with TRIzol™ (ThermoFisher Scientific) and RNA Clean and Concentrator™-5 kit (Zymo Research) following the product instructions. RNA integrity and quantity was assessed by NanoDrop Spectrophotometer (ThermoFisher Scientific). For analysis of mRNA expression, oligo-dT-primed cDNA was obtained using the High Capacity cDNA Reverse Transcription Kit (ThermoFisher Scientific), and used as template to quantify: human and murine IFNA1 (Hs03044218_g1, Mm03030145_gH), human and murine IFNB1 (Hs01077958_s1, Mm00439552_s1), human and murine CXCL9 (Hs00171065_ml, Mm00434946_ml), and human and murine GAPDH (Hs02786624_g1, Mm99999915_g1). Analysis was determined by RT-PCR using TaqMan®Fast Universal PCR Master Mix on a 7500 Fast Real-Time PCR System (ThermoFisher Scientific). Comparative RT-PCR was performed in triplicate. Relative expression was calculated using the comparative […] (Ct) method.
AMO1^WT and STING^KO cells were either untreated or treated with BTZ for 24 h. Supernatant was collected, and secretion of CXCL9 chemokines was analyzed by MIG (CXCL9) Human Instant ELISA™ Kit (#BMS285INST, ThermoFisher Scientific).
AMO1 WT and STING^KO were cultured for 16 h in the presence of absence of BTZ (5 nM). RNA was extracted as previously described and submitted to NovaSeq RNAseq analysis followed by VIPER NGS Analysis pipeline (Cornwell et al. (2018) BMC Bioinformatics; 19(1):135). Lists of DEGs were applied to the GSEA software. RNAseq data have been submitted to Gene Expression Omnibus (accession number: GSE171837).

5TGM1 cells [6] = experiment: Ex vivo IFN-gamma ELISPOT on splenocytes; assay type: in vivo, mouse; settings: splenocytes of BTZ-treated, rechallenged mice
Description: 5×10^5 5TGM1 WT or calrKO were treated with BTZ (7.5 nM) in vitro for 16 h. C57BL/KaLwRijHsd mice (n=8 per group) were then either vaccinated in the left flank with dying 5TGM1 WT, 5TGM1calrKO, 5TGM1 gabarapKO or not vaccinated. After 1 week, 1×10^6 WT 5TGM1 cells were injected in the contralateral flank and tumor growth was monitored over time. In a parallel experiment under the same conditions, spleens from mice were harvested 10 days after rechallenge and ELISPOT assay was performed to assess T cell specific reactivity against MM cells (Translational Immunogenomics Laboratory, DFCI).
as §1

## CC(C)C[C@H](NC(=O)[C@H](Cc1ccccc1)NC(=O)c1cnccn1)B(O)O [BTZ, bortezomib]
[1]
  multiple myeloma cell death, as measured by phosphatidylserine exposure: induced multiple myeloma cell death in a dose-dependent manner
[2]
  phagocytosis of BTZ-treated pdMM cells by DCs: dose-dependent increase in phagocytosis of BTZ-treated pdMM cells by DCs
5TGM1 cells [3]; day 30 after rechallenge
  mice alive at the end of observation: 100%
5TGM1 cells [3]; live 5TGM1 WT injected two weeks after BTZ-induced tumor regression
  tumor development after rechallenge: did not result in tumor development
[4]; AMO1, H929 WT, BTZ 1-10 nM, 16 h, viable (7-AAD negative) cells
  CALR exposure on cell surface: triggers calreticulin (CALR; also referred to as CRT) exposure by cancer cells; also recorded: can induce hallmarks of ICD in human and murine MM cell lines; also recorded: dose-dependent increase of CTLR exposure
[4]; AMO1 STING^KO, BTZ 5 nM, 16 h
  CALR exposure on cell surface: did not alter CALR exposure process
[4]; AMO1 and H929 GABARAP^KO clones
  CALR exposure on cell surface: did not increase CRT exposure; also recorded: GABARAP^KO blocks CALR exposure upon BTZ
[4]; AMO1 and H929 GABARAP^KO clones, listed as Bortezomib
  CALR exposure on cell surface: did not induce CALR exposure in MM cells due to GABARAP deletion
[4]; KMS11 cells (monoallelic deletion of GABARAP)
  CALR exposure on cell surface: did not lead to an increase of CRT exposure
[5]; AMO1, 16 h
  type-I IFN response gene sets (RNA-seq): positive enrichment of gene sets included in the type-I IFN response hallmark signature; also recorded: MM cells engage in a type I IFN response after treatment with BTZ
[5]; AMO1 STING^KO
  CXCL9 transcript and secreted CXCL9 (ELISA): neither CXCL9 transcript or its secreted form were detected
  type-I IFN response (RNA-seq; IFNA1, IFNB1 qRT-PCR): did not activate transcription of genes in the IFNs response or increase the levels of IFNA1 and IFNB1 transcripts; also recorded: STING dependent
[5]; AMO1 and NCI-H929, 16 h
  IFNA1, IFNB1 and CXCL9 transcripts (qRT-PCR): increased IFNA1, IFNB1 and CXCL9 transcripts
5TGM1 cells [6]
  T cell reactivity against MM cells (IFN-gamma ELISPOT): robust immune response against multiple myeloma cells; also recorded: generates a robust immune response against MM cells
